Laboratory results reported in patent US11986480B2, “Heterocyclic compound” (TOHOKU UNIVERSITY, priority 2017, dated 2024).

Key:
Brd4 [1] = biological target: T1, Brd4 (Homo sapiens, UniProt O60885); assay: Test Example 3: HeLa cells, Western blot Brd4/actin (Testing Method C); format: cell-based; design: endogenous in cells; host or cells: HeLa; details: 24 hours, 1 or less = degradation promoted
Procedure: (§1) Test Example 3: Evaluation Using HeLa Cell (Testing Method C)
(§2) HeLa cells were inoculated to Dulbecco's Modified Eagle Medium (DMEM) and cultured for 24 hours. A test compound (specifically, compounds of Examples 47 to 52, 59 and 60) was added thereto at the final concentration shown in Table 2, followed by incubation for 24 hours under conditions of 37° C./5% CO2. The cells were washed with PBS three times and treated with a cell lysis solution containing a proteolytic enzyme inhibitor to obtain a cell extract. The cell extract was subjected to SDS-PAGE. After the electrophoresis, Brd4, FKBP12 or MetAP2 and actin were detected by Western blot. The ratio of the Brd4, FKBP12 or MetAP2/actin value of the drug-treated cells to the Brd4, FKBP12 or MetAP2/actin value of a control group in drug-untreated cells was regarded as an activity value. A value of 1 or less represents that degradation of Brd4, FKBP12 or MetAP2 was promoted.

EmGFP-HaloTag [2] = assay: Test Example 5: Atg5+/+ MEF cells overexpressing EmGFP-HaloTag, Western blot GFP/actin; format: cell-based, mouse; details: Atg5 WT MEF, 10 μM
Procedure: (§3) Test Example 5: Evaluation Using Atg5KO MEF
(§4) Atg5^−/− mouse embryonic fibroblast (MEF) cells or Atg5^+/+ MEF cells were inoculated to Dulbecco's Modified Eagle Medium (DMEM) and cultured for 24 hours. Cells overexpressing EmGFP-HaloTag were obtained by transfection with a plasmid pCMV-EmGFP-HaloTag (SEQ ID NO: 1) encoding EmGFP-HaloTag. On the next day, the compound of Example 56 was added thereto at a final concentration of 10 μM, followed by incubation for 24 hours under conditions of 37° C./5% CO2. The cells were washed with PBS three times and treated with a cell lysis solution containing a proteolytic enzyme inhibitor to obtain a cell extract. The cell extract was subjected to SDS-PAGE. After the electrophoresis, GFP and actin were detected by Western blot. The ratio of the GFP/actin value of the drug-treated cells to the GFP/actin value of a control group in drug-untreated cells was regarded as an activity value. A value of 1 or less represents that degradation of EmGFP-HaloTag was promoted.

EmGFP-HaloTag [3] = assay: Test Example 5: Atg5-/- MEF cells overexpressing EmGFP-HaloTag, Western blot GFP/actin; format: cell-based, mouse; details: Atg5 KO MEF, 10 μM
Procedure: as §3, §4

EmGFP-HaloTag [4] = assay: Test Example 1: HeLa cells stably expressing EmGFP-HaloTag, Western blot GFP/actin (Testing Method A); format: cell-based; details: 10 uM, 24 hours, 1 or less = degradation promoted
Procedure: Test Example 1: Evaluation Method Using Cell Stably Expressing EmGFP-HaloTag (Testing Method A)
HeLa cells stably expressing EmGFP-HaloTag were inoculated to Dulbecco's Modified Eagle Medium (DMEM) and cultured for 24 hours. Then, a test compound (specifically, compounds of Examples 1 to 7, 9 to 11, 13 to 15, 17 to 20, 24 to 27, 29, 32 to 33, 36 to 42, 44 to 46 and 56) was added thereto at the final concentration shown in Table 2, followed by incubation for 24 hours under conditions of 37° C./5% CO2. The cells were washed with PBS three times and treated with a cell lysis solution containing a proteolytic enzyme inhibitor to obtain a cell extract. The cell extract was subjected to SDS-PAGE. After the electrophoresis, GFP and actin were detected by Western blot. The ratio of the GFP/actin value of the drug-treated cells to the GFP/actin value of a control group in drug-untreated cells was regarded as an activity value. A value of 1 or less represents that degradation of EmGFP-HaloTag was promoted.

Brd4 [5] = biological target: T1, Brd4; assay: Test Example 4: A549 cells, Western blot Brd4/actin (Testing Method D); format: cell-based; design: endogenous in cells; details: BRD4, 1 uM, 24 hours, 1 or less = degradation promoted
Procedure: Test Example 4: Evaluation Using A549 Cell (Testing Method D)
as §2, with “A549” for “HeLa”, “57” for “47 to 52, 59”, “58)” for “60)”, “Brd4” for “Brd4, FKBP12 or MetAP2”, “Brd4/actin” for “Brd4, FKBP12 or MetAP2/actin”

FKBP12 = biological target: T2, FKBP12 (Homo sapiens, UniProt P62942); assay: Test Example 3: HeLa cells, Western blot FKBP12/actin (Testing Method C); format: cell-based; details: FKBP12, 1 uM, 24 hours, 1 or less = degradation promoted
T2 construct: endogenous in cells; host or cells: HeLa
Procedure: as §1, §2

T2 sequence (P62942 whole entry): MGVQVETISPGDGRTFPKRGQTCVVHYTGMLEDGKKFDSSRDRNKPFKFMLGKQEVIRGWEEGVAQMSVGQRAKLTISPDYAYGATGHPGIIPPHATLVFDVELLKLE

**Q.** Which “Activity value (Brd4/actin of drug-treated cells relative to drug-untreated control)” value (Brd4 [1]; BRD4, 1 uM) does the source give for `Cc1sc2c(c1C)C(c1ccc(Cl)cc1)=N[C@@H](CC(=O)NCCOCCOCCOCCNC(=O)c1nc3c(=O)[nH]c(N)nc3n1Cc1ccc(F)cc1)c1nnc(C)n1-2` [Example 47, 2-Amino-N-(14-((6S)-4-(4-chlorophenyl)-2,3,9-trimethyl-6H-thieno[3,2-f][1,2,4]triazolo[4,3-a][1,4]diazepin-6-yl)-13-oxo-3,6,9-trioxa-12-azatetradec-1-yl)-9-(4-fluorobenzyl)-6-oxo-6,9-dihydro-1H-purine-8-carboxamide] here?
**A.** 0.4

**Q.** Which “Activity value (Brd4/actin of drug-treated cells relative to drug-untreated control)” value (Brd4 [1]; BRD4, 10 uM) does the source give for `Cc1sc2c(c1C)C(c1ccc(Cl)cc1)=N[C@@H](CC(=O)NCCOCCOCCOCCNC(=O)c1cccc(-c3nc4c(=O)[nH]c(N)nc4n3Cc3ccc(F)cc3)c1)c1nnc(C)n1-2` [Example 48, 3-(2-Amino-9-(4-fluorobenzyl)-6-oxo-6,9-dihydro-1H-purin-8-yl)-N-(14-((6S)-4-(4-chlorophenyl)-2,3,9-trimethyl-6H-thieno[3,2-f][1,2,4]triazolo[4,3-a][1,4]diazepin-6-yl)-13-oxo-3,6,9-trioxa-12-azatetradec-1-yl)benzamide] here?
**A.** 0.8

**Q.** With `CC(=O)N[C@@H](CSc1nc2c(=O)[nH]c(N)nc2n1Cc1ccc(C)cc1)C(=O)NCCOCCOCCOCCNC(=O)C[C@@H]1N=C(c2ccc(Cl)cc2)c2c(sc(C)c2C)-n2c(C)nnc21` [Example 49, N^2-Acetyl-S-(2-amino-9-(4-methylbenzyl)-6-oxo-6,9-dihydro-1H-purin-8-yl)-N-(14-((6S)-4-(4-chlorophenyl)-2,3,9-trimethyl-6H-thieno[3,2-f][1,2,4]triazolo[4,3-a][1,4]diazepin-6-yl)-13-oxo-3,6,9-trioxa-12-azatetradec-1-yl)-L-cysteinamide] as the compound, how does the “Activity value (Brd4/actin of drug-treated cells relative to drug-untreated control)” value (Brd4 [1]; BRD4, 1 uM) read?
**A.** 0.8

**Q.** How did the “Activity value (Brd4/actin of drug-treated cells relative to drug-untreated control)” value (Brd4 [1]; BRD4, 1 uM) turn out when `CC(=O)N[C@@H](CSc1nc2c(=O)[nH]c(N)nc2n1Cc1ccc(Cl)cc1)C(=O)NCCOCCOCCOCCNC(=O)C[C@@H]1N=C(c2ccc(Cl)cc2)c2c(sc(C)c2C)-n2c(C)nnc21` [Example 50, N^2-Acetyl-S-(2-amino-9-(4-chlorobenzyl)-6-oxo-6,9-dihydro-1H-purin-8-yl)-N-(14-((6S)-4-(4-chlorophenyl)-2,3,9-trimethyl-6H-thieno[3,2-f][1,2,4]triazolo[4,3-a][1,4]diazepin-6-yl)-13-oxo-3,6,9-trioxa-12-azatetradec-1-yl)-L-cysteinamide] was run?
**A.** 0.2

**Q.** With `CC(=O)N[C@@H](CSc1nc2c(=O)[nH]c(N)nc2n1Cc1ccc(F)cc1)C(=O)NCCOCCOCCOCCNC(=O)C[C@@H]1N=C(c2ccc(Cl)cc2)c2c(sc(C)c2C)-n2c(C)nnc21` [Example 51, N^2-Acetyl-S-(2-amino-9-(4-fluorobenzyl)-6-oxo-6,9-dihydro-1H-purin-8-yl)-N-(14-((6S)-4-(4-chlorophenyl)-2,3,9-trimethyl-6H-thieno[3,2-f][1,2,4]triazolo[4,3-a][1,4]diazepin-6-yl)-13-oxo-3,6,9-trioxa-12-azatetradec-1-yl)-L-cysteinamide] as the compound, how does the “Activity value (Brd4/actin of drug-treated cells relative to drug-untreated control)” value (Brd4 [1]; BRD4, 1 uM) read?
**A.** 0.6

**Q.** For `Cc1sc2c(c1C)C(c1ccc(Cl)cc1)=N[C@@H](CC(=O)NCCOCCOCCOCCNC(=O)/C=C/c1nc3c(=O)[nH]c(N)nc3n1Cc1ccc(F)cc1)c1nnc(C)n1-2` [Example 52, (2E)-3-(2-Amino-9-(4-fluorobenzyl)-6-oxo-6,9-dihydro-1H-purin-8-yl)-N-(14-((6S)-4-(4-chlorophenyl)-2,3,9-trimethyl-6H-thieno[3,2-f][1,2,4]triazolo[4,3-a][1,4]diazepin-6-yl)-13-oxo-3,6,9-trioxa-12-azatetradec-1-yl)acrylamide], which “Activity value (Brd4/actin of drug-treated cells relative to drug-untreated control)” value (Brd4 [1]; BRD4, 10 uM) is on record?
**A.** 0.8

**Q.** For `CC(=O)N[C@@H](CSc1nc2c(=O)[nH]c(N)nc2n1Cc1ccc(F)cc1)C(=O)NCCOCCOCCOCCOCCOCCCCCCCl` [Example 56, N^2-Acetyl-S-(2-amino-9-(4-fluorobenzyl)-6-oxo-6,9-dihydro-1H-purin-8-yl)-N-(21-chloro-3,6,9,12,15-pentaoxahenicos-1-yl)-L-cysteinamide], which “Activity value (GFP/actin of drug-treated cells relative to drug-untreated control)” value (EmGFP-HaloTag [2]; 0h) is on record?
**A.** 1.0

**Q.** And the “Activity value (GFP/actin of drug-treated cells relative to drug-untreated control)” value (EmGFP-HaloTag [2]; 24 h)?
**A.** 0.3

**Q.** And the “Activity value (GFP/actin of drug-treated cells relative to drug-untreated control)” value (EmGFP-HaloTag [3]; 0h)?
**A.** 1.0

**Q.** And the “Activity value (GFP/actin of drug-treated cells relative to drug-untreated control)” value (EmGFP-HaloTag [3]; 24 h)?
**A.** 1.1

**Q.** What about the “Activity value (GFP/actin of drug-treated cells relative to drug-untreated control)” value (EmGFP-HaloTag [4]) of the same compound?
**A.** 0.55

**Q.** How did the “Activity value (Brd4/actin of drug-treated cells relative to drug-untreated control)” value (Brd4 [5]) turn out when `CC(=O)N[C@@H](CSc1nc2c(=O)[nH]c(N)nc2n1Cc1ccc(F)cc1)C(=O)NCCCOCCOCCOCCCNC(=O)C[C@@H]1N=C(c2ccc(Cl)cc2)c2c(sc(C)c2C)-n2c(C)nnc21` [Example 57, N^2-Acetyl-S-(2-amino-9-(4-fluorobenzyl)-6-oxo-6,9-dihydro-1H-purin-8-yl)-N-(1-((6S)-4-(4-chlorophenyl)-2,3,9-trimethyl-6H-thieno[3,2-f][1,2,4]triazolo[4,3-a][1,4]diazepin-6-yl)-2-oxo-7,10,13-trioxa-3-azahexadecan-16-yl)-L-cysteinamide] was run?
**A.** 0.9

**Q.** How did the “Activity value (Brd4/actin of drug-treated cells relative to drug-untreated control)” value (Brd4 [5]) turn out when `Cc1sc2c(c1C)C(c1ccc(Cl)cc1)=N[C@@H](CC(=O)NCCCOCCOCCOCCCNc1nc3c(=O)[nH]c(N)nc3n1Cc1ccc(F)cc1)c1nnc(C)n1-2` [Example 58, N-(3-(2-(2-(3-((2-Amino-9-(4-fluorobenzyl)-6-oxo-6,9-dihydro-1H-purin-8-yl)amino)propoxy)ethoxy)ethoxy)propyl)-2-((6S)-4-(4-chlorophenyl)-2,3,9-trimethyl-6H-thieno[3,2-f][1,2,4]triazolo[4,3-a][1,4]diazepin-6-yl)acetamide] was run?
**A.** 0.8

**Q.** With `CCC(C)(C)C(=O)C(=O)N1CCCCC1C(=O)O[C@H](CCc1ccc(OC)c(OC)c1)c1cccc(NC(=O)CCC(=O)NCCCOCCOCCOCCCNC(=O)[C@H](CSc2nc3c(=O)[nH]c(N)nc3n2Cc2ccc(F)cc2)NC(C)=O)c1` (stereo partly drawn) [Example 59, (1R)-1-(3-((18-((N-Acetyl-S-(2-amino-9-(4-fluorobenzyl)-6-oxo-6,9-dihydro-1H-purin-8-yl)-L-cysteinyl)amino)-4-oxo-9,12,15-trioxa-5-azaoctadecan-1-oyl)amino)phenyl)-3-(3,4-dimethoxyphenyl)propyl 1-(3,3-dimethyl-2-oxopentanoyl)piperidine-2-carboxylate] as the compound, how does the “Activity value (FKBP12/actin of drug-treated cells relative to drug-untreated control)” value (FKBP12) read?
**A.** 0.5
